pIC50: −log10 of the molar value.

From BindingDB's records for doi:10.1016/j.bmcl.2016.03.078 (Merck Research Laboratories, 2016) come the findings set out here.

In the assay the target is E3 ubiquitin-protein ligase Mdm2 (Homo sapiens, UniProt Q00987). Briefly: Displacement of Ac-Phe-Arg-Dpr(fluorophore)-Ac6c-(6-Br)Trp-Glu-Glu-Leu-NH2 from human N-terminal His6-tagged MDM2 (17 to 125 residues) expressed in Escherichia coli by fluorescence polarization assay. Background: Fluorescence polarisation rises when a labelled molecule tumbles more slowly, as on binding a larger partner.
Sequence of E3 ubiquitin-protein ligase Mdm2 (Q00987 whole entry, the tested form may be a part): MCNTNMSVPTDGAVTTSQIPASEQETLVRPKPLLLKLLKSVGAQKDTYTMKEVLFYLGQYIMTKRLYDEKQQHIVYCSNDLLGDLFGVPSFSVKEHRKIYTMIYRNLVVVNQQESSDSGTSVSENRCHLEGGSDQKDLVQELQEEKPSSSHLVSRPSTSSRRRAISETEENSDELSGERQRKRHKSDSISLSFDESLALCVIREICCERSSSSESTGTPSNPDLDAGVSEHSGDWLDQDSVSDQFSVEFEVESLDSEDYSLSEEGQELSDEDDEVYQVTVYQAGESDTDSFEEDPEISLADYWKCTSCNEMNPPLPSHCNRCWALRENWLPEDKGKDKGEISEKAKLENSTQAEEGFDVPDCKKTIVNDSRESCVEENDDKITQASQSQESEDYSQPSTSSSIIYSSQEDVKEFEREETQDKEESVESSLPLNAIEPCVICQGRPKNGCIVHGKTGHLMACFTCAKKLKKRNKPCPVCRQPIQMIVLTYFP

Molecule `O=C(c1cnccc1C(F)(F)F)N1CCCC(Oc2ccc(C(F)(F)F)cc2)(C(=O)N2CCN(c3ccccn3)CC2)C1` (stereo unspecified) showed a negative-log IC50 (pIC50) of 5.64.

As a reminder, the pIC50 is −log10 of the IC50, conventionally taken in molar units.
